Data from patent publication US20230203560A1, “GLUCOSYL ESTERS FOR INFECTION SCREENING” (Board of Regents, The University of Texas System, priority 2020, published 2023).

Key:
leukocyte esterase (LE) [1] = assay: Electrochemical LE assay in human urine: glucose released from glucosyl ester, read on glucose test strip with potentiostat; type: biochemical; settings: for sample incubation time with ester to yield enough glucose to be above the detection limit of the potentiostat/glucose strip system: human urine spiked with LE, 5.5 mM ester, glucose detection limit 5 μM
Protocol: (§1) The human leukocyte suspension in 154 mM NaCl solution (cat. No. MBS173116, 0.0867 mg mL^−1 leukocyte esterase (LE) protein, 4×10^8 WBC mL^−1) was purchased from MyBioSource (San Diego, Calif.). The suspension was diluted 10 times with a 90:10 vol. % mixture of 50 mM phosphate buffer saline (PBS, pH 7.40, 154 mM NaCl) solution and dimethylsulfoxide, left for 10 min to lyse the leukocytes chemically, sonicated for 30 s with a Q125 Qsonica probe (20% power) to further lyse them mechanically, and centrifuged at 15 000×g for 30 min. The resulting supernatant that contained LE was stored at −20° C.
The human synovial fluid (DLS0092658) was purchased from Discovery Life Sciences (Los Osos, Calif.) and stored at −70° C. when not in use. The clean-catch midstream portion of human urine (˜15.0 mL) was collected early in the morning in a 50.0-mL sterile centrifuge tube (Fisher Scientific, Pittsburgh, Pa.) centrifuged at 600×g for 5 min, and the supernatant was stored at −20° C. The synovial fluid and urine were spiked with known amount of LE before the analysis.
Electrochemical Measurements. The glucose strip was inserted into an electronic holder (DropSens, Llanera, Spain), which was then connected to a CHE 832B potentiostat (other potentiostats could also be used). The strip was used in a 2-electrode mode with the counter and reference electrodes connected together as a single cathode and a working electrode serving as an anode (the strip's fill-detector electrode was not used). The potential applied to a working electrode was equal to 0.15 V vs. strip's reference/counter electrode.
The 0.15 V potential was applied to a glucose strip, which was then contacted at time t=0 s with a small drop of sample (˜10 μL) that was placed on a Petri dish (FIG. 2). The amperogram obtained in such a way was integrated between t=2 and t=22 s to determine the charge Q flowing through the strip. Two charges were always determined: Q(ester) for a sample incubated with 5.5 mM ester for 5 min, and Q(no ester) for an original sample without ester. The difference in charge ΔQ [=Q(ester)−Q(no ester)] was proportional to the enzymatic activity of LE in a sample.
The samples were incubated with each ester to release glucose in the direct proportion to the enzymatic activity of LE in a sample. The released glucose was then detected at a commercial glucose test strip. A laboratory potentiostat was used to read the glucose strip. The strip was inserted in an electronic holder to facilitate the measurements (FIG. 2). Such a strip-potentiostat measuring system provided a much lower limit of glucose detection (5.0 μM, S/N=3; FIG. 3A) and a linear range at least up to 100 μM glucose (FIG. 3B), which allowed for a much shorter (minutes) incubation times (FIG. 4).

leukocyte esterase (LE) [2] = assay: Electrochemical LE assay in human synovial fluid: glucose released from glucosyl ester, read on glucose test strip with potentiostat; type: biochemical; settings: human synovial fluid spiked with LE; 5.5 mM ester
Protocol: as §1
The human synovial fluid (DLS0092658) was purchased from Discovery Life Sciences (Los Osos, Calif.) and stored at −70° C. when not in use. […]
The 0.15 V potential was applied to a glucose strip, which was then contacted at time t=0 s with a small drop of sample (˜10 μL) that was placed on a Petri dish (FIG. 2). […] Two charges were always determined: Q(ester) for a sample incubated with 5.5 mM ester for 5 min, and Q(no ester) for an original sample without ester. […]
The samples were incubated with each ester to release glucose in the direct proportion to the enzymatic activity of LE in a sample. The released glucose was then detected at a commercial glucose test strip. A laboratory potentiostat was used to read the glucose strip. […]

Structure (SMILES)	sample incubation time with ester to yield enough glucose to be above the detection limit of the potentiostat/glucose strip system (leukocyte esterase (LE) [1])	sample incubation time with ester before reading the glucose strip (leukocyte esterase (LE) [2])	kinetics of the enzymatic reaction of LE with the ester, compared to ester α (leukocyte esterase (LE) [1]; ascribed from longer incubation time and lower calibration slope)	calibration slope (ΔQ vs LE concentration) lower than with ester α (leukocyte esterase (LE) [1]; human urine, ester γ 10 min vs ester α 5 min incubation (FIG. 8))
Cc1ccc(S(=O)(=O)N[C@@H](C)C(=O)OCCCC(=O)O[C@@H]2O[C@H](CO)[C@@H](O)[C@H](O)[C@H]2O)cc1 [ester α, (2S,3R,4S,5S,6R)-3,4,5-trihydroxy-6-(hydroxymethyl)oxan-2-yl 4-{[(2S)-2-(4-methylbenzenesulfonamido)propanoyl]oxy}butanoate]	5 min	5 min	–	–
Cc1ccc(S(=O)(=O)N[C@@H](C)C(=O)OCCNC(=O)O[C@H]2O[C@H](CO)[C@@H](O)[C@H](O)[C@H]2O)cc1 [ester γ, 2-[({[(2R,3R,4S,5S,6R)-3,4,5-trihydroxy-6-(hydroxymethyl)oxan-2-yl]oxy}carbonyl)amino]ethyl (2S)-2-(4-methylbenzenesulfonamido)propanoate]	10 min	–	slower kinetics	~10%
